In US20240109896A1, “FGFR KINASE INHIBITOR AND USE THEREOF” (YA THERAPEUTICS INC, priority 2021, published 2024) one finds IC50 data, which are given here for 17 compounds.

Like-named read-outs stand apart in the source and are kept apart here.

In assay [1] the test system is human bladder cancer cells (RT4). In words: Proliferation inhibition of human bladder cancer cells RT4 (CellTiter-Glo). The assay is classed as cell-based. The conditions noted are these: RT4, 3 days. Here is the method: (§1) Using the CellTiter-Glo<TM>Live Cell Assay Kit, The inhibitory effect of the test compound on the proliferation of human gastric cancer cells (SNU-16) and FGFR3 high expression and FGFR3 fusion of FGFR3-TACC3 fused human bladder cancer cells (RT4) was determined. Among them, RT4 medium is added with fetal bovine serum and McCoy's 5A medium with a final concentration of 10%.
(§2) Test steps: SNU-16 and RT4 cells that have reached 80% cell confluency were digested by trypsin, centrifuged and re-suspended for counting, and 3500 and 6000 cells/mL of SNU-16 and RT4 cell suspensions were prepared with medium, respectively. Add a 96-well cell culture plate (90 μL/well) and place in a cell culture incubator containing 5% CO2 at 37° C. […] The diluted compound stock solution was further diluted with SNU-16 and RT4 medium and the diluted mixture was transferred to the corresponding cell plates, respectively. […] Mix and centrifuge and then place in a cell culture incubator containing 5% CO2 for 3 days at 37° C. Take out the 96-well cell culture plate and add CellTiterGlo (CTG, Chemiluminescent Cell Viability Assay) reagent (100 L/well. Mix and centrifuge, and then incubate for 10 min at room temperature. After gentle shaking, the absorbance at 450 nm wavelength was determined on the SpectraMax M5 Reader, and the absorbance at 650 nm was used as a reference (i.e., 450 nm absorbance −650 nm absorbance) to calculate the suppression.
A general note: Cellular ATP, detected with luciferase, serves as a proxy for viable cell number.

Assay [2] concerns Hep3B cells. Put plainly: Human hepatoma cell Hep3B survival test (CellTiter-Glo). The assay is classed as cell-based. The conditions noted are these: treated 72 hours, read-out: inhibitory activity on Hep3B cell proliferation IC50. The procedure:
The Hep3B cell line of human liver cancer is derived from ATCC. Cells are supplemented with McCoy's 5A medium and additionally added fetal bovine serum (IOFBS). Cells are kept in the medium at 37° C., humidity at 95%, and carbon dioxide at 500. Hep3B cells were seeded in 96-well plates at a density of 3500 cells per well with a cell suspension volume of 90 μL per well and cultured at 37° C. in a cell culture incubator containing 500 CO2. […] The cells were then placed in a 37° C. incubator and treated with compounds for 72 hours.

Assay [3] relates to human gastric cancer cells (SNU-16). Put plainly: Proliferation inhibition of human gastric cancer cells SNU-16 (CellTiter-Glo). The assay is classed as cell-based. The conditions noted are these: 72 h, SNU-16, 3 days. Here is the method:
as §1, §2

Assay [4] has as its target FGFR4 (Homo sapiens, UniProt P22455). Put plainly: In vitro activity inhibition test for kinase FGFR4.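 Note: caliper mobility shift assay of FGFR4 kinase activity, compounds tested as 10-point 4-fold dilution series with 0.5% DMSO final.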
Protocol: (§3) In Vitro Activity Inhibition Test for Kinases FGFR1, FGFR2, FGFR3 and FGFR4
(§4) The activity of FGFR1, FGFR2, FGFR3 and FGFR4 protein kinases was determined by Caliper mobility shift assay. Perform a 4-fold gradient dilution from a working concentration of 0.2 mM in DMSO, diluting 10 concentrations. Add 2 μL of compound to 78 μL of 1× compound buffer. There were 10 points each for the negative control and the positive control. Shake the board on the rocker for 20 min. […] The final concentration of DMSO was 0.5%.
For assay [5], the target named is FGFR2 (Homo sapiens, UniProt P21802). In words: In vitro activity inhibition test for kinase FGFR2. The assay is classed as biochemical. Conditions: kinase assay, 25° C.; read-out: Inhibition of separase IC50 (nM) FGFR2.
In assay [6] the target is FGFR1 (Homo sapiens, UniProt P11362). In words: In vitro activity inhibition test for kinase FGFR1.
Protocol: as §3, §4
Assay [7] deals with FGFR3 (Homo sapiens, UniProt P22607). Put plainly: In vitro activity inhibition test for kinase FGFR3.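 Note: FGFR3 kinase activity read by Caliper mobility shift assay, compounds run as 10-point 4-fold dilution series, final DMSO 0.5%.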
Sequence of FGFR3 (P22607 23-806): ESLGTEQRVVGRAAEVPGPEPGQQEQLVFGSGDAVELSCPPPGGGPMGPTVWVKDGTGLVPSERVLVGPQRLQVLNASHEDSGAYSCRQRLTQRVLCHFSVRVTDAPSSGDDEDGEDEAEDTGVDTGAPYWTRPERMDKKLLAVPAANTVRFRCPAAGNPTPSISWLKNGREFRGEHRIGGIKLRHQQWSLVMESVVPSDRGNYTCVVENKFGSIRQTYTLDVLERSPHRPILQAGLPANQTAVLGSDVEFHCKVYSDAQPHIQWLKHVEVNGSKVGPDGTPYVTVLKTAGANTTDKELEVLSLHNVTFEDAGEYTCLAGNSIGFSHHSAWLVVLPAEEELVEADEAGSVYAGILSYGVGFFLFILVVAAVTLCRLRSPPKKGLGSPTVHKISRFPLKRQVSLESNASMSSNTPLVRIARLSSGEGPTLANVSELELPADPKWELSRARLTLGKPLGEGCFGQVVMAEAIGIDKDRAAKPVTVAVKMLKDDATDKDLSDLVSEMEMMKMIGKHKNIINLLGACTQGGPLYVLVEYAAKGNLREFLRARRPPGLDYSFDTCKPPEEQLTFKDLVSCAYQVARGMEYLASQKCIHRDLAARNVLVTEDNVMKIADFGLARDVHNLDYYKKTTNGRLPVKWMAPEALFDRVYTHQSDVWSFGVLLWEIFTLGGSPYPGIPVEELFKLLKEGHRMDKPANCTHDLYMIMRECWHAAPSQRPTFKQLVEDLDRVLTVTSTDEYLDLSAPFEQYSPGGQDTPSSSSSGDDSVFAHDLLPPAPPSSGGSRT
Protocol: as §3, §4

Sequence of FGFR2 (P21802 22-821): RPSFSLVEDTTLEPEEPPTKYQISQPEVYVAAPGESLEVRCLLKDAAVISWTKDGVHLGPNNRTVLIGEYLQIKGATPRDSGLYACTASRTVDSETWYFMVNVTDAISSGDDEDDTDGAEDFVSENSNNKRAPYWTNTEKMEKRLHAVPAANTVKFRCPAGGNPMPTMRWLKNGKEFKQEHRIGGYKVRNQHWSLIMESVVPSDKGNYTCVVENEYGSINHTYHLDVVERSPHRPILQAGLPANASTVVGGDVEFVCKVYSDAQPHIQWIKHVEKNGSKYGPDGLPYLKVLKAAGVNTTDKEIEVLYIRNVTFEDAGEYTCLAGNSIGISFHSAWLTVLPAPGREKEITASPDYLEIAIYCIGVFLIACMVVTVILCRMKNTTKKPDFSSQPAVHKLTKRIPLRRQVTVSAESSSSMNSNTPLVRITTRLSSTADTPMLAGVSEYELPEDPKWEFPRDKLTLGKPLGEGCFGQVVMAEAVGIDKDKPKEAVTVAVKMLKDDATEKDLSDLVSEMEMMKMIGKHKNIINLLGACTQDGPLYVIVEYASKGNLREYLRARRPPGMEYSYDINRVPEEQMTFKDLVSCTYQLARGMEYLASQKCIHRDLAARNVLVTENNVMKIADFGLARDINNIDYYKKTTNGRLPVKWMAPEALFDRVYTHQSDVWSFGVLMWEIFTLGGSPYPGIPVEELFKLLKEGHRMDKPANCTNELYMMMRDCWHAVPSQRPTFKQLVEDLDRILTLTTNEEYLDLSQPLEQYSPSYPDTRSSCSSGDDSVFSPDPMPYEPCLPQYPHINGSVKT
Sequence of FGFR4 (P22455 22-802): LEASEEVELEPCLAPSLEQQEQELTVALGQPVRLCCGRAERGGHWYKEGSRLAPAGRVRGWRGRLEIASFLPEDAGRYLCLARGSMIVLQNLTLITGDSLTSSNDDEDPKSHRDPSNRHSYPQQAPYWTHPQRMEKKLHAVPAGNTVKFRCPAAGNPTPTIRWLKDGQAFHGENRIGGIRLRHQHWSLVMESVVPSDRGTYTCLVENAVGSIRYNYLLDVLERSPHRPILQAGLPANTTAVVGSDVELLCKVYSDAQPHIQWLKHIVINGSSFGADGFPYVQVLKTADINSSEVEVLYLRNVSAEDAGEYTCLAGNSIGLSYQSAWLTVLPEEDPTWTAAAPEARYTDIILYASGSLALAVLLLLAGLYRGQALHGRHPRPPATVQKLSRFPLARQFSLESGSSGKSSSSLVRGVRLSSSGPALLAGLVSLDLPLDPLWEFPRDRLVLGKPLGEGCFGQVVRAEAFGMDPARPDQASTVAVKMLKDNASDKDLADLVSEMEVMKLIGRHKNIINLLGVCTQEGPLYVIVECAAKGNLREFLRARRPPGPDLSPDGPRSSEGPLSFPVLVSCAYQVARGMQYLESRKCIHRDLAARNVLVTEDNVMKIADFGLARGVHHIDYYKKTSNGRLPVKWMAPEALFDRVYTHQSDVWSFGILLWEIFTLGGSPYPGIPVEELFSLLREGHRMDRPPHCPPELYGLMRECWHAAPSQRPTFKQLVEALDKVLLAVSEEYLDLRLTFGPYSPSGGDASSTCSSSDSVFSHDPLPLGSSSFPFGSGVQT
Sequence of FGFR1 (P11362 22-822): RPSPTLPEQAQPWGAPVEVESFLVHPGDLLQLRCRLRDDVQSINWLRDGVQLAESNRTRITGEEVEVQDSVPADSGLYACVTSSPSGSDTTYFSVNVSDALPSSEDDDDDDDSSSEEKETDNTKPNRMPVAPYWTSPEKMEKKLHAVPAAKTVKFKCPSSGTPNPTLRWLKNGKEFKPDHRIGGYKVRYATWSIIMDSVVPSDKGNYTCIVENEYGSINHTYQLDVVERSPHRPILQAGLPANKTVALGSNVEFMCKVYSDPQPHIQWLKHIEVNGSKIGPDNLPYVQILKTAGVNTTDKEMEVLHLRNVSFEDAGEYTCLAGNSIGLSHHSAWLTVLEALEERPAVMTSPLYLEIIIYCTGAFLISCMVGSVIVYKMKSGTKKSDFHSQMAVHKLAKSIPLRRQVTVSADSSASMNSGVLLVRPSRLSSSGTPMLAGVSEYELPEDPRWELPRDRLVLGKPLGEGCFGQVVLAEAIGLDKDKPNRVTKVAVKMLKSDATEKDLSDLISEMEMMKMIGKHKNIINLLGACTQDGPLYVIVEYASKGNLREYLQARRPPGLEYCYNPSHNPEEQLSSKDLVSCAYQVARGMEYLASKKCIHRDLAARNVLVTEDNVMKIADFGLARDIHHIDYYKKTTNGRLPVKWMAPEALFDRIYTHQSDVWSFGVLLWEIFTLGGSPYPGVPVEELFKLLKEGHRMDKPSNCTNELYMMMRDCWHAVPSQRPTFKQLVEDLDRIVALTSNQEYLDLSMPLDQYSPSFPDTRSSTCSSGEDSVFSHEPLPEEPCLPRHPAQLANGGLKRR

Take `CCN1CCN(c2ccc(Nc3cc(N(C)C(=O)Nc4c(Cl)c(OC)cc(OC)c4Cl)ncn3)cc2)CC1` [BGJ398, infigratinib, reference compound]: the IC50 is 11.8 nM in assay [1] (Homo sapiens, RT-4, 72 h); 10 to 100 nM in assay [2] (Homo sapiens); 0.572 nM in assay [3].
As to `C=CC(=O)N1CCC[C@H](n2cc(C#Cc3cc(OC)cc(OC)c3)c3c(N)n[nH]c(=O)c32)C1` [Compound 20, (S)-1-(1-acryloylpiperidin-3-yl)-4-amino-3-((3,5-dimethoxyphenyl)ethynyl)-1,6-dihydro-7H-pyrrolo[2,3-d]pyridazin-7-one], the IC50 in assay [4], in assay [5], in assay [2] (Homo sapiens), in assay [6] and in assay [7] was < 10 nM throughout.
Take `C=CC(=O)N1CC[C@H](n2cc(C#Cc3cc(OC)cc(OC)c3)c3c(N)n[nH]c(=O)c32)C1` [Compound 22, (S)-1-(1-acryloylpyrrolidin-3-yl)-4-amino-3-((3,5-dimethoxyphenyl)ethynyl)-1,6-dihydro-7H-pyrrolo[2,3-d]pyridazin-7-one]: the IC50 in assay [4], in assay [5], in assay [2] (Homo sapiens), in assay [6] and in assay [7] was < 10 nM throughout.
As to `C=CC(=O)N1CCC[C@H](n2nc(C#Cc3cc(OC)cc(OC)c3)c3c(N)n[nH]c(=O)c32)C1` [Compound 24, (S)-1-(1-acryloylpiperidin-3-yl)-4-amino-3-((3,5-dimethoxyphenyl)ethynyl)-1,6-dihydro-7H-pyrazolo[3,4-d]pyridazin-7-one], the IC50 in assay [4], in assay [5], in assay [2] (Homo sapiens), in assay [6] and in assay [7] was < 10 nM in each case.
On to `C=CC(=O)N1CC[C@H](n2nc(C#Cc3cc(OC)cc(OC)c3)c3c(N)n[nH]c(=O)c32)C1` [Compound 26, (S)-1-(1-acryloylpyrrolidin-3-yl)-4-amino-3-((3,5-dimethoxyphenyl)ethynyl)-1,6-dihydro-7H-pyrazolo[3,4-d]pyridazin-7-one], for which the IC50 in assay [4], in assay [5], in assay [2] (Homo sapiens), in assay [6] and in assay [7] was < 10 nM in each case.
As to `CC#CC(=O)N1CC[C@H](n2nc(C#Cc3cc(OC)cc(OC)c3)c3c(N)n[nH]c(=O)c32)C1` [Compound 27, (S)-4-amino-1-(1-(but-2-ynoyl)pyrrolidin-3-yl)-3-((3,5-dimethoxyphenyl)ethynyl)-1,6-dihydro-7H-pyrazolo[3,4-d]pyridazin-7-one], the IC50 in assay [4], in assay [5], in assay [6] and in assay [7] was < 10 nM in each case.
Take `C=CC(=O)N1CC[C@H](n2nc(C#Cc3c(Cl)c(OC)cc(OC)c3Cl)c3c(N)n[nH]c(=O)c32)C1` [Compound 30, (S)-1-(1-acryloylpyrrolidin-3-yl)-4-amino-3-((2,6-dichloro-3,5-dimethoxyphenyl)ethynyl)-1,6-dihydro-7H-pyrazolo[3,4-d]pyridazin-7-one]: the IC50 in assay [4], in assay [5], in assay [2] (Homo sapiens), in assay [6] and in assay [7] was < 10 nM in each case.
On to `C=CC(=O)N1CC[C@H](n2nc(-c3cc4cc(C)cc(OC)c4s3)c3c(N)n[nH]c(=O)c32)C1` [Compound 36, (S)-1-(1-acryloylpyrrolidin-3-yl)-4-amino-3-(7-methoxy-5-methylbenzo[b]thiophen-2-yl)-1,6-dihydro-7H-pyrazolo[3,4-d]pyridazin-7-one], for which the IC50 in assay [4], in assay [5], in assay [2] (Homo sapiens), in assay [6] and in assay [7] was < 10 nM in each case.
Consider `CC#CC(=O)N1CC[C@H](n2cc(-c3ccc4ccccc4c3)c3c(N)n[nH]c(=O)c32)C1` [Compound 39, (S)-4-amino-1-(1-(but-2-ynoyl)pyrrolidin-3-yl)-3-(naphthalen-2-yl)-1,6-dihydro-7H-pyrrolo[2,3-d]pyridazin-7-one], for which the IC50 in assay [4], in assay [5], in assay [6] and in assay [7] was < 10 nM each time.
`C=CC(=O)N1CC[C@H](n2cc(-c3cc4ccccc4n3C)c3c(N)n[nH]c(=O)c32)C1` [Compound 40, (S)-1-(1-acryloylpyrrolidin-3-yl)-4-amino-3-(1-methyl-1H-indol-2-yl)-1,6-dihydro-7H-pyrrolo[2,3-d]pyridazin-7-one]: the IC50 in assay [4], in assay [5], in assay [6] and in assay [7] was < 10 nM each time.
For the compound `C=CC(=O)N1CC[C@H](n2cc(-c3cc4ccccc4o3)c3c(N)n[nH]c(=O)c32)C1` [Compound 41, (S)-1-(1-acryloylpyrrolidin-3-yl)-4-amino-3-(benzofuran-2-yl)-1,6-dihydro-7H-pyrrolo[2,3-d]pyridazin-7-one], the IC50 in assay [4], in assay [5], in assay [6] and in assay [7] was < 10 nM each time.
With `C=CC(=O)N1CC[C@H](n2cc(-c3cn(C)c4ccccc34)c3c(N)n[nH]c(=O)c32)C1` [Compound 42, (S)-1-(1-acryloylpyrrolidin-3-yl)-4-amino-3-(1-methyl-1H-indol-3-yl)-1,6-dihydro-7H-pyrrolo[2,3-d]pyridazin-7-one], the IC50 in assay [4], in assay [5], in assay [6] and in assay [7] was < 10 nM in each case.
For `C=CC(=O)N1CC[C@H](n2cc(-c3ccc4ccccc4c3)c3c(N)n[nH]c(=O)c32)C1` [Compound 43, (S)-1-(1-acryloylpyrrolidin-3-yl)-4-amino-3-(naphthalen-2-yl)-1,6-dihydro-7H-pyrrolo[2,3-d]pyridazin-7-one], the IC50 in assay [4], in assay [5], in assay [6] and in assay [7] was < 10 nM each time.
For `COc1cc(OC)cc(N(CCNC(C)C)c2ccc3ncc(-c4cnn(C)c4)nc3c2)c1` [Erdafinib], the IC50 in assay [1] was determined as 1.8 nM.
For `CCN1C(=O)N(c2c(F)c(OC)cc(OC)c2F)Cc2cnc3[nH]c(CN4CCOCC4)cc3c21` [Pemigatinib, reference compound], the IC50 in assay [1] (Homo sapiens, RT-4, 72 h) was 6 nM; in assay [2] (Homo sapiens), 10 to 100 nM; in assay [3] it was 0.249 nM.
Consider “(S)-4-amino-1-(1-(but-2-ynoyl)pyrrolidin-3-yl)-3-((2,6-difluoro-3,5-dimethoxyphenyl)ethynyl)-1,6-dihydro-7H-pyrazolo[3,4-d]pyridazin-7-one [Compound 29]”, for which the IC50 is < 10 nM in assay [4] (read-out: Inhibition of kinase IC50 (nM) FGFR4, kinase assay, 25° C.); < 10 nM in assay [5]; < 10 nM in assay [6] (read-out: Inhibition of FGFR1 IC50 (nM) FGFR1, kinase assay, 25° C.); < 10 nM in assay [7] (read-out: Inhibition IC50 (nM) FGFR3, kinase assay, 25° C.).
For the compound “(S)-4-amino-1-(1-(but-2-ynoyl)pyrrolidin-3-yl)-3-((2,6-difluoro-3,5-dimethoxyphenyl)ethynyl)-1,6-dihydro-7H-pyrazolo[3,4-d]pyridazin-7-one [Compound 34]”, in assay [2], the IC50 was < 10 nM.
